Measured values published in patent US10875861B1, “Therapeutic compounds” (Rutgers, The State University of New Jersey, priority 2017, dated 2020).
Structures can show the parent of a compound that is named as a salt.

Key:
[1] = test system: BMI-1 5'UTR; experiment: Luciferase plasmid containing the BMI-1 5'UTR with or without binding pocket; type: cell-based
Protocol: Since translation initiation is dependent on RNA folding, the 3D folding of the BMI-1 5′UTR was examined. To identify sequences that fold into a target minimum and maximum free energy (MFE) secondary structure, inverse RNA folding of the BMI-1 5′UTR was performed using the mFold server. A highly probable, probability annotated group of secondary structures were identified, starting with the MFE, centroid energy structures and including fourteen other probabilities. […] In a luciferase plasmid containing the BMI-1 5′UTR, the sequences of the pocket region that contains the potential binding site was removed by cutting with compatible restriction enzymes and re-ligating the plasmid. The luciferase activity was examined with the luc plasmids or without the binding pocket upon treatment with the inhibitors. […] Thus, RU-A15/A16 engages with the BMI-1 UTR regulatory mechanisms.

[2] = test system: normal astrocytes; experiment: Effects on normal astrocytes; type: cell-based
Excerpt: (§1) BMI-1 inhibitors were developed by the Molecular Design and Synthesis laboratory, Rutgers Translational Sciences at Rutgers University, NJ, USA. […] (Generic name is PTC-209) was characterized among a screen for post-transcriptional inhibitors of BMI-1. Zebrafish embryo toxicology assays were used to select RU-A compounds with no embryonic toxicity in vivo (a surrogate assay for toxic effects on normal stem cells). […] Cells were counted using Beckman Coulter Vi-CELL Cell Viability Analyzer, and cell viability was confirmed by CellTiter-Glo Luminescent Cell Viability Assay (Promega, Madison, Wis., USA) according to standard protocols and analyzed with a Victor 2 plate reader (Wallac, Turku, Finland).

[3] = test system: BMI-1 protein; experiment: Inhibition of BMI-1 protein levels in U87 cells (Western blotting); type: cell-based; settings: read-out: IC50, inhibition of BMI-1 protein levels, U87 glioblastoma cell lysate, 72 hours
Protocol: U87 cells were treated with DMSO or different concentrations of compound B1 for 72 hours. Cells were lysed in Cell Lysis Buffer (Cell Signaling, #9803) supplemented with Protease Inhibitor Cocktail (Sigma, #P8340), sonicated briefly while on ice and spun down for 30 minutes at 4° C., after which the supernatant was collected. For each sample, 2 uL of lysate was mixed well into 198 uL de-ionized water. Next, 10 uL of this diluted sample was added to a well in a 96 well plate in quadruplets and mixed with Protein Assay Dye Reagent Concentrate (Bio-Rad, #500-0006) (which was diluted 1:5 with water). BSA standards of 25 ng, 50 ng, 100 ng, 200 ng and 250 ng were also used to the plate and mixed with the reagent. The plate was read in a plate reader at 600 nm and samples were calibrated to the standards to determine the concentration of protein. Using the NuPAGE system (Invitrogen), 25 ug of protein was mixed with NuPAGE LDS 4× Sample Buffer (#NP0007), NuPAGE 10× Reducing Agent (#NP0004) and water, mixed well and heated at 96° C. for 15 minutes to denature the protein. […] Protein signals were detected using ECL Western Blotting Substrate (Pierce, #32106) and filmed.
U87 cells were treated with DMSO or different concentrations of the inhibitors for 72 hours. […] The plate was read in a plate reader at 600 nm and samples were calibrated to the standards to determine the concentration of protein. […]

[4] = test system: Zebrafish embryo; experiment: Zebrafish embryo toxicology assay; type: in vivo
Excerpt: as §1

[5] = test system: BMI-1 and ubiquitinated histone H2A in primary glioblastoma cells; experiment: Modulation / dynamics of BMI-1 and downstream targets in GBM cells (Western blotting); type: cell-based, human
Protocol: Different GBM cells were treated with DMSO or different concentrations of the B compounds for 72 hours. Cells were lysed in Cell Lysis Buffer (Cell Signaling, #9803) supplemented with Protease Inhibitor Cocktail (Sigma, #P8340), spun down for 30 minutes at 4° C., after which the supernatant was collected at every time point indicated. Western blotting analysis was performed on all samples as described above. BMI-1 loss started at 6-12 h, coinciding with an upper shift and hyper-phosphorylation of BMI-1 at 12-24 h and complete depletion at 72 h.
To study the compound dynamic activity against GBM spheres, GBMs were tested with exemplary compounds. Different GBM cells were treated with DMSO or different concentrations of the inhibitors for 72 hours. Cells were lysed in Cell Lysis Buffer (Cell Signaling, #9803) supplemented with Protease Inhibitor Cocktail (Sigma, #P8340), spun down for 30 minutes at 4° C., after which the supernatant was collected at every time point indicated. Western blotting analysis was performed on all samples as described above. […] BMI-1 loss started at 6-12 h, coinciding with an upper shift and hyper-phosphorylation of BMI-1 at 12-24 h and complete depletion at 72 h. […] This is expected since BMI-1 is known to suppress p21. BMI-1 inhibition could be reversed using phosphatase treatment, moreover, when proteasomal inhibitor is added to treated cells after 24 h, BMI-1 is locked in the phosphorylated state, therefore showing that the phosphorylation event precedes BMI-1 degradation. The phosphorylation was independent of p38 kinase activation, as when we added […], the p38 inhibitor to the cultured cells upon treatment with the BMI-1 inhibitor, the combined treatment could not reverse the effects of RU-A15 on BMI-1 inhibition.

[6] = test system: glioblastoma cancer stem cells; experiment: Sphere selectivity ratio EC50(U87)/EC50(spheres); type: cell-based, human; settings: ratio greater than controls (DMSO and Temozolomide)
Protocol: The selectivity and potency in U87 cells were assessed vs primary GBM. Dose-response curves were generated in both spheres and monocultures and used to determine a sphere selectivity ratio (targeting Glioblastoma Initiating Cells), defined as EC50(U87)/EC50(spheres), for each compound.

[7] = test system: BMI-1 and αENaC mRNA; experiment: mRNA expression of BMI-1 and αENaC on concomitant treatment with cyclohexamide; type: cell-based; settings: RU-A15 100 nM, RU-A16 200 nM, concomitant with CHX
Protocol: Next, to test if Examples 3 and 4 are selective for BMI-1 RNA, cells were concomitantly treated with RU-A15/16 (100 nM, 200 nM, respectively) and cyclohexamide (CHX), a general translational inhibitor, and analyzed mRNA expression of BMI-1 and the CHX-specific target epithelial sodium channel (αENaC).

[8] = test system: U87 glioblastoma cells; experiment: Comparison of Example 3 and PTC-209 in U87 glioblastoma cells (cell viability); type: cell-based
Excerpt: as §1

[9] = primary glioblastoma cells, Western blotting

normalized luc, BMI-1 5'UTR with intact binding pocket ([1]; intact minor groove potential binding pocket): significantly reduced normalized luc
effects on normal astrocytes [2]: no significant effects
IC50 [3]: 0.01 µM
IC50 ([8]; Homo sapiens, U-87 MG, 72 hours): 0.01 µM
SMILES: COc1ccc(Nc2nc(-c3c(C)nc4ccccn34)cs2)cc1 [Example 3, N-(4-methoxyphenyl)-4-(2-methylimidaz[1,2-a]pyridin-3-yl)thiazol-2-aminehydrobromide]
normalized luc, binding pocket sequences removed ([1]; pocket sequences removed): not when the pocket sequences were removed
effects in embryo assays [4]: no significant effects
CDK inhibitor p21 ([5]; GBM#46 and #50): induced upregulation of the CDK inhibitor p21
lowest concentration giving dose-dependent loss of BMI-1 protein expression ([5]; GBM#50, 72 h): 25 nM
BMI-1 protein levels [5, 9]: inhibit BMI-1
WT p53 levels [5, 9]: increase WT p53 levels
ubiquitin H2A [5, 9]: inhibit ubiquitin H2A
selectivity for glioblastoma cancer stem cells (sphere selectivity ratio) [6]: high selectivity for glioblastoma cancer stem cells
BMI-1 mRNA expression [7]: did not inhibit
αENaC mRNA expression [7]: did not inhibit
potency relative to PTC-209 [8]: one thousand-fold more potent than PTC-209
